Data as given in PMC7561186, “Rational design of balanced dual-targeting antibiotics with limited resistance” (PLoS Biology, 2020).
In brackets after ≈: the same amount, converted by molar mass. Like-named read-outs stand apart in the source and are kept apart here.

Test system: S. aureus clinical isolates
Experiment: microbe, parasite or virus in culture
Assay type: cell-based
Details: Staphylococcus aureus, read-out: MIC

Question: Which results are given for `Cc1onc(-c2ccccc2)c1C(=O)N[C@@H]1C(=O)N2[C@@H]1SC(C)(C)[C@@H]2C(=O)O` [Oxacillin]?
Answer: MIC (ATCC 29213 / MSSA, S. aureus ATCC 29213, MSSA / VSSA, test date 2018-10-25 (three repeat lines)): 0.25 mg/L (≈ 0.623 µM); MIC (ATCC 29213 / MSSA, S. aureus ATCC 29213, MSSA / VSSA, test date 2018-11-07): 0.25 mg/L (≈ 0.623 µM); MIC (MRSA / NRS 3 / VISA, S. aureus IHMA 1308243, NRS3, MRSA / VISA): > 64 mg/L; MIC (MRSA / NRS 4 / VISA, S. aureus IHMA 649380, NRS4, MRSA / VISA): > 64 mg/L; MIC (MRSA / NRS 18 / VISA, S. aureus IHMA 649386, NRS18, MRSA / VISA): 64 mg/L (≈ 159 µM); MIC (MRSA / NRS 19 / VISA, S. aureus IHMA 649387, NRS19, MRSA / VISA): > 64 mg/L; MIC (MRSA / NRS 21 / VISA, S. aureus IHMA 649388, NRS21, MRSA / VISA): > 64 mg/L; MIC (MRSA / NRS 22 / USA600 / VISA, S. aureus IHMA 649389, NRS22, MRSA / VISA, USA600): 16 mg/L (≈ 39.9 µM); MIC (MRSA / NRS 23 / VISA, S. aureus IHMA 649390, NRS23, MRSA / VISA): > 64 mg/L; MIC (MRSA / NRS 24 / VISA, S. aureus IHMA 649391, NRS24, MRSA / VISA): > 64 mg/L; MIC (MRSA / NRS 26, S. aureus IHMA 649392, NRS26, MRSA / VSSA): > 64 mg/L; MIC (MRSA / NRS 27 / VISA, S. aureus IHMA 1308248, NRS27, MRSA / VISA): > 64 mg/L; MIC (MRSA / NRS 29 / VISA, S. aureus IHMA 1308250, NRS29, MRSA / VISA): > 64 mg/L; MIC (MRSA / NRS 37 / VISA, S. aureus IHMA 1308251, NRS37, MRSA / VISA): 8 mg/L (≈ 19.9 µM); MIC (MRSA / NRS 54, S. aureus IHMA 1308253, NRS54, MRSA / VSSA* (*Expected VAN intermediate, confirmed VAN susceptible twice), test date 2018-11-07): > 64 mg/L; MIC (MRSA / NRS 56 / VISA, S. aureus IHMA 1308254, NRS56, MRSA / VISA): > 64 mg/L; MIC (MRSA / USA100 / VRSA, S. aureus IHMA 672230, VRS1, MRSA / VRSA, USA100): > 64 mg/L; MIC (MRSA / USA100 / VRSA, S. aureus IHMA 672231, VRS2, MRSA / VRSA, USA100): > 64 mg/L; MIC (MRSA / USA100 / VRSA, S. aureus IHMA 672234, VRS4, MRSA / VRSA, USA100): > 64 mg/L; MIC (MRSA / USA100 / VRSA, S. aureus IHMA 672235, VRS5, MRSA / VRSA, USA100): > 64 mg/L; MIC (MRSA / USA100 / VRSA, S. aureus IHMA 672237, VRS7, MRSA / VRSA, USA100): > 64 mg/L; MIC (MRSA / USA100 / VRSA, S. aureus IHMA 672238, VRS8, MRSA / VRSA, USA100): > 64 mg/L; MIC (MRSA / USA100 / VRSA, S. aureus IHMA 672239, VRS9, MRSA / VRSA, USA100): > 64 mg/L; MIC (MRSA / USA100 / VRSA, S. aureus IHMA 1308256, VRS10, MRSA / VRSA, USA100): > 64 mg/L; MIC (MRSA / USA100 / VRSA, S. aureus IHMA 1308258, VRS11b, MRSA / VRSA, USA100): 16 mg/L (≈ 39.9 µM); MIC (MRSA / USA800 / VRSA, S. aureus IHMA 672233, VRS3b, MRSA / VRSA, USA800): > 64 mg/L; MIC (MRSA, S. aureus IHMA 1569509, MRSA / VSSA): > 64 mg/L; MIC (MRSA, S. aureus IHMA 1575268, MRSA / VSSA): > 64 mg/L; MIC (MRSA, S. aureus IHMA 1575629, MRSA / VSSA): 64 mg/L (≈ 159 µM); MIC (MRSA, S. aureus IHMA 1577820, MRSA / VSSA): 32 mg/L (≈ 79.7 µM); MIC (MRSA, S. aureus IHMA 1580300, MRSA / VSSA): > 64 mg/L; MIC (MRSA, S. aureus IHMA 1580940, MRSA / VSSA): 32 mg/L (≈ 79.7 µM); MIC (MRSA, S. aureus IHMA 1582100, MRSA / VSSA): > 64 mg/L; MIC (MRSA, S. aureus IHMA 1583795, MRSA / VSSA): > 64 mg/L; MIC (MRSA, S. aureus IHMA 1584223, MRSA / VSSA): > 64 mg/L; MIC (MRSA, S. aureus IHMA 1585316, MRSA / VSSA): > 64 mg/L; MIC (MRSA, S. aureus IHMA 1586780, MRSA / VSSA): 32 mg/L (≈ 79.7 µM); MIC (MRSA, S. aureus IHMA 1587322, MRSA / VSSA): > 64 mg/L; MIC (MRSA, S. aureus IHMA 1588127, MRSA / VSSA): 32 mg/L (≈ 79.7 µM); MIC (MRSA, S. aureus IHMA 1591462, MRSA / VSSA): 32 mg/L (≈ 79.7 µM); MIC (MRSA, S. aureus IHMA 1592755, MRSA / VSSA): > 64 mg/L; MIC (MRSA, S. aureus IHMA 1592776, MRSA / VSSA): 32 mg/L (≈ 79.7 µM); MIC (MRSA, S. aureus IHMA 1597106, MRSA / VSSA): > 64 mg/L; MIC (MRSA, S. aureus IHMA 1602095, MRSA / VSSA): 32 mg/L (≈ 79.7 µM); MIC (MRSA, S. aureus IHMA 1611170, MRSA / VSSA): 16 mg/L (≈ 39.9 µM); MIC (MRSA, S. aureus IHMA 1611612, MRSA / VSSA): > 64 mg/L; MIC (MRSA, S. aureus IHMA 1612228, MRSA / VSSA): > 64 mg/L; MIC (MRSA, S. aureus IHMA 1620441, MRSA / VSSA): > 64 mg/L; MIC (MRSA, S. aureus IHMA 1621638, MRSA / VSSA): 32 mg/L (≈ 79.7 µM); MIC (MRSA, S. aureus IHMA 1622252, MRSA / VSSA): > 64 mg/L; MIC (MRSA, S. aureus IHMA 1622527, MRSA / VSSA): 32 mg/L (≈ 79.7 µM); MIC (MRSA, S. aureus IHMA 1666371, MRSA / VSSA): 16 mg/L (≈ 39.9 µM); MIC (MRSA, S. aureus IHMA 1695391, MRSA / VSSA): > 64 mg/L; MIC (MRSA, S. aureus IHMA 1703428, MRSA / VSSA): 64 mg/L (≈ 159 µM); MIC (MRSA, S. aureus IHMA 1720350, MRSA / VSSA): 32 mg/L (≈ 79.7 µM); MIC (MRSA, S. aureus IHMA 1732989, MRSA / VSSA): > 64 mg/L; MIC (MRSA, S. aureus IHMA 1742231, MRSA / VSSA): > 64 mg/L; MIC (MRSA, S. aureus IHMA 1766357, MRSA / VSSA): 32 mg/L (≈ 79.7 µM); MIC (MSSA / NRS 12 / VISA, S. aureus IHMA 1308244, NRS12, MSSA / VISA): 0.25 mg/L (≈ 0.623 µM); MIC (MSSA / NRS 13 / VISA, S. aureus IHMA 1308245, NRS13, MSSA / VISA): 0.5 mg/L (≈ 1.25 µM); MIC (MSSA / NRS 14 / VISA, S. aureus IHMA 1308246, NRS14, MSSA / VISA): 0.25 mg/L (≈ 0.623 µM); MIC (MSSA / NRS 17 / VISA, S. aureus IHMA 1308247, NRS17, MSSA / VISA): 2 mg/L (≈ 4.98 µM); MIC (MSSA / NRS 28 / VISA, S. aureus IHMA 1308249, NRS28, MSSA / VISA): 2 mg/L (≈ 4.98 µM); MIC (MSSA / NRS 52, S. aureus IHMA 1308252, NRS52, MSSA / VSSA* (*Expected VAN intermediate, confirmed VAN susceptible twice), test date 2018-11-07): 0.12 mg/L (≈ 0.299 µM); MIC (MSSA / USA100 / VRSA, S. aureus IHMA 672236, VRS6, MSSA / VRSA, USA100): 2 mg/L (≈ 4.98 µM); MIC (MSSA, S. aureus IHMA 1563826, MSSA / VSSA): 0.25 mg/L (≈ 0.623 µM); MIC (MSSA, S. aureus IHMA 1565492, MSSA / VSSA): 0.25 mg/L (≈ 0.623 µM); MIC (MSSA, S. aureus IHMA 1569499, MSSA / VSSA): 1 mg/L (≈ 2.49 µM); MIC (MSSA, S. aureus IHMA 1569754, MSSA / VSSA): 1 mg/L (≈ 2.49 µM); MIC (MSSA, S. aureus IHMA 1574202, MSSA / VSSA): 2 mg/L (≈ 4.98 µM); MIC (MSSA, S. aureus IHMA 1575652, MSSA / VSSA): 1 mg/L (≈ 2.49 µM); MIC (MSSA, S. aureus IHMA 1575779, MSSA / VSSA): 0.5 mg/L (≈ 1.25 µM); MIC (MSSA, S. aureus IHMA 1576329, MSSA / VSSA): 0.5 mg/L (≈ 1.25 µM); MIC (MSSA, S. aureus IHMA 1577800, MSSA / VSSA): 0.5 mg/L (≈ 1.25 µM); MIC (MSSA, S. aureus IHMA 1578560, MSSA / VSSA): 0.5 mg/L (≈ 1.25 µM); MIC (MSSA, S. aureus IHMA 1580233, MSSA / VSSA): 0.5 mg/L (≈ 1.25 µM); MIC (MSSA, S. aureus IHMA 1580925, MSSA / VSSA): 0.5 mg/L (≈ 1.25 µM); MIC (MSSA, S. aureus IHMA 1580955, MSSA / VSSA): 0.5 mg/L (≈ 1.25 µM); MIC (MSSA, S. aureus IHMA 1582586, MSSA / VSSA): 0.5 mg/L (≈ 1.25 µM); MIC (MSSA, S. aureus IHMA 1582691, MSSA / VSSA): 0.25 mg/L (≈ 0.623 µM); MIC (MSSA, S. aureus IHMA 1584230, MSSA / VSSA): 0.5 mg/L (≈ 1.25 µM); MIC (MSSA, S. aureus IHMA 1587279, MSSA / VSSA): 0.25 mg/L (≈ 0.623 µM); MIC (MSSA, S. aureus IHMA 1591459, MSSA / VSSA): 0.25 mg/L (≈ 0.623 µM); MIC (MSSA, S. aureus IHMA 1592749, MSSA / VSSA): 0.25 mg/L (≈ 0.623 µM); MIC (MSSA, S. aureus IHMA 1592751, MSSA / VSSA): 0.5 mg/L (≈ 1.25 µM); MIC (MSSA, S. aureus IHMA 1594297, MSSA / VSSA): 0.5 mg/L (≈ 1.25 µM); MIC (MSSA, S. aureus IHMA 1597120, MSSA / VSSA): 0.25 mg/L (≈ 0.623 µM); MIC (MSSA, S. aureus IHMA 1597125, MSSA / VSSA): 0.5 mg/L (≈ 1.25 µM); MIC (MSSA, S. aureus IHMA 1599157, MSSA / VSSA): 0.5 mg/L (≈ 1.25 µM); MIC (MSSA, S. aureus IHMA 1599506, MSSA / VSSA): 0.5 mg/L (≈ 1.25 µM); MIC (MSSA, S. aureus IHMA 1602078, MSSA / VSSA): 1 mg/L (≈ 2.49 µM); MIC (MSSA, S. aureus IHMA 1604586, MSSA / VSSA): 0.5 mg/L (≈ 1.25 µM); MIC (MSSA, S. aureus IHMA 1604609, MSSA / VSSA): 0.25 mg/L (≈ 0.623 µM); MIC (MSSA, S. aureus IHMA 1609919, MSSA / VSSA): 0.25 mg/L (≈ 0.623 µM); MIC (MSSA, S. aureus IHMA 1622864, MSSA / VSSA): 0.5 mg/L (≈ 1.25 µM); MIC (MSSA, S. aureus IHMA 1626392, MSSA / VSSA): 0.5 mg/L (≈ 1.25 µM); MIC (MSSA, S. aureus IHMA 1713793, MSSA / VSSA): 0.5 mg/L (≈ 1.25 µM)
